Results reported in publication PMC4585840 (Scientific Reports, 2015).

Tests used:
HCT116 cells = assay: cell viability (microscopy and MTT) in HCT116 cells; type: cell-based, human; conditions: 2 hours
Method: (§1) HCT116 cells, plated at a density of 1 × 10^5 cells/well and human neurons, plated at a density of 6 × 10^6 cells/well on poly-L-lysine were treated with PBS or phenothiazines for 2 hours. The media was replaced before acquiring images with the Nikon Eclipse Ti microscope and the NIS-Elements (Version 3.10) software. MTT assays: Cells were plated in 96-well plates at 1 × 10^4 or 1 × 10^5 cells per well for 24 hours before treatments with phenothiazines or PBS. After 2 hours, fresh media containing […] MTT (3-(4,5-dimethylthiazol-2-yl)-2,5-diphenyltetrazolium bromide) (Sigma-Aldrich) was added and the cells were incubated for 4 hours at 37 °C in 5% CO2. The media was removed, formazan crystals were dissolved in DMSO, and the absorbance was measured at 560 nm and 670 nm using the BioTek Synergy H4 plate reader.

RCasp3 = biological target: T1, RCasp3 (Homo sapiens, UniProt P42574); assay: in vitro tubulin cleavage assay with RCasp3; type: biochemical; conditions: 20 nM RCasp3, 10 μM DTT, 10 hours, western blot densitometry; read-out: IC50 on RCasp3-cleaved tubulin
T1 construct: Active Casp6 and Casp3 represented >99% of the purified enzyme; purchased Enzo Lifesciences
T1 sequence (P42574 29-175 limits assumed): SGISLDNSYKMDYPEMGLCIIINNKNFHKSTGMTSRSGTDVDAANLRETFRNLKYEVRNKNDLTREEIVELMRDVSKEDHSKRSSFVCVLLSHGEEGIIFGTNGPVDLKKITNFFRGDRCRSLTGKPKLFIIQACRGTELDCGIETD
T1 sequence (P42574 176-277 limits assumed): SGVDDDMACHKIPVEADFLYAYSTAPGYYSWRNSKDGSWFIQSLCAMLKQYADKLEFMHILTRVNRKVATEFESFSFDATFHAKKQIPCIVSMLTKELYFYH

RCasp6 [1] = biological target: T2, RCasp6 (Homo sapiens, UniProt P55212); assay: in vitro tubulin cleavage assay with RCasp6; type: biochemical; conditions: 20 nM RCasp6, 10 μM DTT, 10 hours, western blot densitometry; read-out: IC50, cleavage of tubulin by RCasp6 (Tub∆Casp6 relative to total tubulin)
T2 construct: The zymogen is cleaved at three distinct sites to remove the prodomain and linker regions in order to obtain an active enzyme; His tag (C); made in house; host or cells: E. coli BL21 (DE3)pLysS
T2 sequence (P55212 24-179 limits assumed): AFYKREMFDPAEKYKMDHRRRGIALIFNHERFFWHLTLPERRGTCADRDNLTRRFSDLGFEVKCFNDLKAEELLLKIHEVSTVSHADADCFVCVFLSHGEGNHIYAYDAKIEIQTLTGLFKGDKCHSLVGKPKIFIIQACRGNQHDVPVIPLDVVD
T2 sequence (P55212 194-293 limits assumed): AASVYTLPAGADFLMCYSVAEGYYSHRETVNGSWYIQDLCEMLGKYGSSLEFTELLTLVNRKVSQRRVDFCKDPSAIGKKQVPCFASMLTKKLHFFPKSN
Method: Phenothiazines were mixed with 20 nM RCasp6 or RCasp3, 10 μM DTT, and 7.5 nM BSA in SB and 36 μg HCT116 protein extracts added before incubation at 37 °C for 10 hours, western blotting, and densitometry for tubulin-cleaved by Casp6 (Tub∆Casp6) and total tubulin as described in the western blot section. The IC50 was determined by a non-linear regression fit for log inhibitor vs caspase activity with a Hill slope of −1 using GraphPad Prism 5.0.
(§2) The 10630 (1:10,000) and GN60622 (1:10,000) neoepitope antibodies against the p20 subunit of active Casp6[16] and Tub∆Casp6[23], respectively, were generated in our laboratory. The β-actin clone AC-15 (1:5000, Sigma-Aldrich), Casp6 p10 clone B93-4 (1:250, BD Canada, Mississauga, ON, CA), Casp3, and full-length α-tubulin (1:1000, Cell Signaling Technology Inc., Danvers, MA, USA) antibodies were diluted in 5% non-fat dry milk in Tris-buffered saline containing 0.1% Tween-20 (Sigma-Aldrich). […] Secondary anti-mouse conjugated to alkaline phosphatase (Jackson Immunoresearch Laboratories Inc., West Grove, PA) was developed with nitro-blue tetrazolium (ThermoSci) and 5-bromo-4-chloro-3′-indolyphosphate (ThermoSci).

RCasp6 [2] = biological target: T2, RCasp6; assay: in vitro fluorogenic Casp6 activity assay (Ac-VEID-AFC); type: biochemical; conditions: 10 μM DTT; Fig. 1c
human primary neurons = assay: cell viability (microscopy) in human primary neurons; type: cell-based; conditions: phase contrast microscopy, 2 hours
Method: as §1

RCasp1 = biological target: T3, RCasp1 (Homo sapiens, UniProt P29466); assay: in vitro fluorogenic Casp1 activity assay (z-YVAD-AFC); type: biochemical; conditions: Fig. 1g
T3 construct: purchased Biovision
T3 sequence (P29466 120-404): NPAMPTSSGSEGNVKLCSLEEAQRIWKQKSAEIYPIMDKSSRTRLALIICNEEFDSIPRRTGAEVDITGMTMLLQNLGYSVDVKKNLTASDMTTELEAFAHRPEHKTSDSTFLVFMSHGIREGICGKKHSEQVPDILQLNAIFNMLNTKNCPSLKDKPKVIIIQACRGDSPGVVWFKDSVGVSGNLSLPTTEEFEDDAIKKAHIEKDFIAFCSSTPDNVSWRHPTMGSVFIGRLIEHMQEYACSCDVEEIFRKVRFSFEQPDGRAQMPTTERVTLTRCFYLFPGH
Method: (§3) Activity assays for RCasp1 (Biovision, Millpitas, CA, USA) and RCasp3 (Enzo Lifesciences) used Z-Tyr-Val-Ala-Asp-7-Amino-4-trifluoromethylcoumarin (z-YVAD-AFC: Enzo LifeSciences,), and Ac-Asp-Glu-Val-Asp-7-Amino-4-trifluoromethylcouramin (Ac-DEVD-AFC: Enzo LifeSciences), respectively. To confirm that these substrates report caspase activity and not proteasomal caspase-like enzyme activity, 1 μM pan-caspase inhibitor, Q-VD-OPh (Sigma-Aldrich) or 0.1 μM proteasome inhibitor, bortezomib (Calbiochem, MA, USA) were tested on 20 nM RCasp3 or 40–60 μg of mouse liver protein extracts.

RCasp6 [3] = biological target: T2, RCasp6; assay: inhibitor kinetic studies (Michaelis-Menten / Lineweaver-Burk) on RCasp6; type: biochemical; conditions: competitive inhibition model, nonlinear regression, Ac-VEID-AFC substrate, 10 nM RCasp6
Casp6 = biological target: T4, Casp6 (Homo sapiens, UniProt P55212); assay: Casp6 activity in Casp6p20p10-transfected HCT116 cells; type: cell-based; parameters: for active Casp6p20 subunit (p20), full length Casp6 lacking its pro-domain; Casp6p20p10 (p20p10); expressed in transfected cells; host or cells: HCT116 human colon carcinoma cells; conditions: transfected HCT116, 2 hrs; 100 μM and 1 mM methylene blue, 50 μM azure A, 10 μM and 100 μM azure B
T4 sequence (P55212 24-179 limits assumed): T2 sequence (P55212 24-179 limits assumed)
T4 sequence (P55212 194-293 limits assumed): T2 sequence (P55212 194-293 limits assumed)
Method: as §3
Human colon carcinoma (HCT116) cells, cultured as recommended (ATCC: Manassas, VA, USA), were transfected with 1 μg pCep4βCasp6p20p10 and 8 μg polyethyleneimine (Polysciences Inc., Warrington, PA, USA), and grown 24 hrs before treatment with PBS and phenothiazines for 2 hours. Human primary neurons were cultured from fetal brain cortical areas obtained under ethical guidelines and approved by the McGill University’s institutional review board as previously described. Human primary neurons plated in poly-L-lysine -coated 6-well plates at a density of 3 × 10^6 cells/mL were serum-deprived for 2 hours in the presence of phenothiazines or an equivalent volume of PBS. Proteins were harvested in cell lysis buffer (CLB; 50mM HEPES, 0.1% CHAPS, 0.1mM EDTA).
as §2

What does the source list for CN(C)c1ccc2nc3ccc(=[N+](C)C)cc-3sc2c1 [methylene blue, [7-(dimethylamino)phenothiazin-3-ylidene]-dimethylazanium;chloride]?
concentration that decreased MTT absorbance to almost nothing (toxicity) (HCT116 cells; HCT116, MTT assay): 10000 µM; concentration up to which MTT absorbance was similar to PBS-treated cells (HCT116 cells; HCT116, MTT assay): up to 1 mM; concentration at which cells retained morphology and confluence comparable to PBS-treated controls (HCT116 cells; HCT116, phase contrast microscopy): 100 μM; IC50 (RCasp3): 14.2 µM; IC50 (RCasp6 [1]): 10.6 µM; concentration at which reduction in Casp6 activity was observed (RCasp6 [2]): 100 pM; concentration above which cell body size and axonal fragmentation increased (human primary neurons): above 100 μM; inhibition of RCasp1 in the fluorogenic assay (RCasp1): dose dependent inhibition; Ki (RCasp6 [3]): 50.5 µM; Casp6 activity on the Ac-VEID-AFC peptide substrate (Casp6): significantly inhibited
